Reference: patent US20030194748A1, “Method for labeling with tritium” (priority 2000, published 2003)

Target: T1, TXA2 receptor (Homo sapiens, UniProt P21731)
T1 construct: human platelet membrane fraction was prepared; from tissue; host or cells: human platelets (membrane fraction from the blood of normal adult donors)
T1 sequence (P21731 1-343): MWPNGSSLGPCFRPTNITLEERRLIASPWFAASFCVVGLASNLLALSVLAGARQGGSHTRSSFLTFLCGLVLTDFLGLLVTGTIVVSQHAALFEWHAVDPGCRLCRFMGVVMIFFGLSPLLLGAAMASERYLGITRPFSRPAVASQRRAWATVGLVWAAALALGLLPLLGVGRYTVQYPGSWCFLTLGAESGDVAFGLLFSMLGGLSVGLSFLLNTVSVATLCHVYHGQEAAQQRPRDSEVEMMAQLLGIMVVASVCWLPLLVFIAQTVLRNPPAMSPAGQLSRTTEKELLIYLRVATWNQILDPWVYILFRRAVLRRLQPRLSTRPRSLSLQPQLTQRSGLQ
Assay: TXA2 receptor binding assay
Settings: human platelet membrane fraction; displacement of 2 nM [3H](+)-S-145 sodium salt; 90 min at room temperature; read-out: inhibition activity IC50
Procedure: Blood which was obtained using a plastic syringe contained 3.8% sodium citrate from the vein of normal human (adult male and female) was put into a plastic tube, and after lightly mixing with tumbling, centrifuged at 1800 rpm, for 10 min. at a room temperature to obtain platelet rich plasma (PRP) in supernatant. The PRP was further centrifuged at 2,300 rpm, for 22 min. at a room temperature to obtain platelets. The obtained platelets was homogenized using homogenizer (Ultra-Turrax), and then, centrifuged at 20,000 rpm, for 10 min. at 4° C. to obtain a fraction of platelet membrane. The membrane fraction was subjected to a quantitative assay for a protein to be adjusted to 2 mg/ml, and kept at −80° C. in a freezer until a binding assay is conducted. […]
To 0.2 ml of a binding reaction mixture (50 mM Tris/HCl, pH 7.4, 10 mM MgCl2), human platelet membrane fraction (0.05 mg) and 26.4 Ci/mmol of 2 nM [^3H](+)-(5Z)-7-[3-endo-[(phenylsulfonyl)amino]bicyclo[2.2.1]hepto-2-exo-yl] heptenic acid sodium salt (Japanese Patent Publication No. H5-79060, referred hereinafter to (+)-S-145 sodium salt) were added, and reacted for 90 min at room temperature. After reaction, the reaction was filtered by using grass fiber filter, washed several times with cold saline, and then, radioactivity remaining on the filter was assayed. […]

Row | IC50 | SMILES
1 | 150 nM | O=C(O)CCC/C=C\C[C@H]1[C@@H]2CC[C@@H](C2)[C@@H]1NC(=O)c1csc2ccc(O)cc12 [Compound 1]
2 | 3800 nM | COC(=O)CCC/C=C\C[C@H]1[C@@H]2CC[C@@H](C2)[C@@H]1NC(=O)c1cccc2ccsc12 [Compound 2]
